Here are results for one compound from paper PMC5527305, “Prevention of Ophthalmia Neonatorum Caused by Neisseria gonorrhoeae Using a Fatty Acid-Based Formulation” (mBio, 2017).

Data set [1] deals with N. gonorrhoeae strain NCCP11945. The data set can be described thus: Log reduction assay in GC broth, 2-min exposure. Type of data set: cell-based, Neisseria gonorrhoeae. As for the experimental part:
To find potential candidates, 37 organic acids, esters, and salts were tested in a two-tiered screening process. These candidates were chosen based on the carbon chain lengths of the fatty acids, the presence or absence of saturation, and modifications to represent a diverse selection of organic acid candidates. The first screen aimed to determine the ability of each compound to inhibit the growth of N. gonorrhoeae strain NCCP11945 at 1 mM in GC solid media (Table 1). This strain was chosen due to its relatively recent isolation, its antibiotic resistance profile, and the availability of a complete genome sequence. Those candidates able to inhibit the growth of N. gonorrhoeae strain NCCP11945 were investigated in a second assay. The second assay tested the ability of each compound to cause at least a 4-log reduction in viable bacteria at 1 mM with a 2-min exposure time (Table 1).
Log reductions were done as described by Bergsson and coworkers ([18]). Briefly, cells were suspended in GC broth (18 g/liter GC base [Oxoid, Limited] with added defined supplements) to an optical density at 520 nm of 0.3, which is approximately equivalent to 10^7 to 10^8 cells per ml ([38]). […] The contents of the tubes were then mixed at room temperature for 2 min and immediately diluted in a 10-fold dilution series to 10^−4. The dilutions were plated by spreading 10 µl on a quarter of a plate; a 100-µl neat solution was also plated. Plates were then incubated at 37°C for 48 h, with all samples plated in duplicate. […] Additional testing at lower concentrations was also done on the eight clinical isolates of European origin.

The next data set has as its system bovine cornea. The data set can be described thus: Bovine corneal opacity and permeability (BCOP) test. How it is done: Bovine eyes were collected from a local slaughter house (ABP, Guildford, Surrey, United Kingdom) and were transported in cold saline solution for testing at the laboratory. Each eye was first visually examined for signs of damage before use. The test was conducted as detailed by Abdelkader and coworkers ([21]). The exposure time of the test substances was 30 s. The selected bactericidal compounds were tested at 1 mM in saline solution, with a corresponding vehicle control (1% ethanol–saline solution) also performed. […] The test area of the cornea was then washed with 10 ml saline solution. Corneal damage to the test area was assessed by fluorescein staining and examination under a cobalt blue filter. Pathological scoring based on opacity, epithelial integrity, and epithelial detachment was done in accordance with previous publications ([19]). Each of the seven lead candidates was tested in triplicate, and each test was performed on a separate day using a different batch of eyeballs. Corneal histology was done as outlined by Abdelkader and coworkers ([21]) by evaluating the damage to the epithelial layer and stroma of the cornea after hematoxylin and eosin staining.

The next data set deals with bovine RBCs. The experiment in a line: Red blood cell (RBC) lysis assay. It is filed as cell-based. As for the experimental part: Whole bovine blood was obtained from a local slaughter house (ABP), adding 90 ml blood to 10 ml 110 mM trisodium citrate anticoagulant. RBCs were isolated the same day. The RBCs were washed by three repeats of centrifugation (1,500 × g for 10 min) and resuspension in phosphate-buffered saline (PBS) with 10 mM glucose (PBSG). Testing was done following the guidelines of the European Union Reference Laboratory for alternatives to animal testing (EURL-ECVAM) ([22]). The organic acids were solubilized in dimethyl sulfoxide (DMSO) and diluted to a maximum DMSO concentration of 10%. In a 2-ml centrifuge tube, 750 µl of the sample was added to 250 µl RBCs. Controls used in the assay were a complete lysis control (deionized water) and a fragility control (PBSG–10% DMSO). Samples were shaken at room temperature for 1 h and then centrifuged at 14,000 × g for 2 min. An aliquot of 750 µl of the supernatant was taken and its absorbance at 451 nm measured.

Data set [2] deals with N. gonorrhoeae strain NCCP11945 in coculture with human corneal epithelial cells. The experiment in a line: Cell culture infection model, log reduction of N. gonorrhoeae on corneal epithelial cells. Type of data set: cell-based, Neisseria gonorrhoeae. The note with it: for Killing of N. gonorrhoeae in coculture with corneal cells: 1 mM, added at time of infection or 90 min later, 3 h. How it is done: Because of its potency, resistance to precipitation in the presence of calcium, and nonirritant nature, monocaprin was chosen from the seven candidates to test in a cell culture model with a 2-fold dilution series from 1 mM to 0.125 mM. Bacteria were also challenged with this compound at two different time points, i.e., at the time of the inoculation and 90 min later. […] There was a slight difference in the level of efficacy when monocaprin was used at sub-MBC levels and added 90 min after bacterial inoculation in comparison to addition immediately after inoculation of the bacteria (Fig. 6). This was possibly due to monocaprin hindering attachment of the bacterial cells to the corneal cells when it was added at the time of infection.
Primary cornea epithelial cells (Life Technologies, Inc.) were grown in keratinocyte serum-free medium (Life Technologies, Inc.) at 37°C with 5% CO2 until 80% confluence was reached. Cells were treated with trypsin, washed, added to 24-well plates, and incubated for a further 24 h. The medium was replaced and approximately 10^7 CFU/ml P^+ and Opa^+ N. gonorrhoeae strain NCCP11945 added to reach a host-to-pathogen ratio (multiplicity of infection) of 1:10. Monocaprin (1 mM, 0.5 mM, 0.25 mM, or 0.125 mM) was added either at 0 min or at 90 min after seeding with N. gonorrhoeae. Controls included noninfected, noninfected treated (with 1 mM monocaprin), infection, and gentamicin controls. After 3 h, the cells were washed, treated with 1% saponin, and incubated for 10 min at 37°C. GC broth was added to each well, and log reductions were calculated as detailed above. Comparisons of the log reductions at different drug administration times at given concentrations were performed using an unpaired t test and GraphPad Prism (version 6.01).

In data set [3] the test system is N. gonorrhoeae on human corneal epithelial cells. The data set can be described thus: LIVE/DEAD staining of gonococcus-infected human corneal epithelial cells. Type of data set: cell-based, Neisseria gonorrhoeae. The settings on record: 1 mM. As for the experimental part:
The LIVE/DEAD BacLight bacterial viability kit for microscopy (Life Technologies, Inc.) was used according to manufacturer’s instructions. After the course of infection, the culture wells were washed five times with sterile 0.85% NaCl to remove nonadhered bacterial cells. Stain was added to each well for 15 min at room temperature before washing in 0.85% saline solution was performed. Glass coverslips were mounted in BacLight mounting oil and visualized on a Nikon Eclipse i80 fluorescence microscope (Nikon United Kingdom) as detailed above.

In another data set the test system is C. trachomatis. On the set-up: method as in PMID 9736551. The settings on record: cited from earlier work.
The next data set has as its system N. gonorrhoeae. The arrangement: method as in PMID 10543766. The note with it: cited from earlier work.

In the case of `CCCCCCCCCC(=O)OCC(O)CO` (centres unmarked) [Monocaprin], in data set [1], the “Log reduction at 1 mM: at least a 4-log reduction in viable bacteria (Yes/No)” value is listed as “Yes”. Moreover, the “Log reduction at 1 mM (calculated log reduction in viable bacteria)” value in data set [1] (maximum score 6 = all cells killed) was over 6 log10. In addition, the “Mean cumulative BCOP score” value in the data set with bovine cornea (1 mM in saline solution, 30 s exposure, triplicate) is recorded as “lower than 0.5”. For the same compound, the “Fluorescein staining of cornea” value in the data set on bovine cornea (1 mM, around rubber application ring) is “any sign of fluorescein staining”. Further, in the data set with bovine cornea (candidates 1 mM in saline, controls 0.5 M NaOH, 100% acetone, 30 s exposure), the BCOP irritancy classification result is recorded as “nonirritants”. Besides, the “H50 concentration relative to MBC” value in the data set with bovine RBCs is on record as “greater than their MBCs”. In data set [2] (0.125 mM, both time points), the “Efficacy (log reduction) in cell culture model” value is recorded as “completely ineffective”. Further, the “Killing of N. gonorrhoeae in coculture with corneal cells” value in data set [2] is on record as “killed all N. gonorrhoeae bacteria”. Moreover, the “Killing of N. gonorrhoeae in coculture with corneal cells” value in data set [2] (listed as monocaprin) is reported as “complete killing”. In addition, the “Bacterial log reduction, comparison of addition times” value in data set [2] (0.25 and 0.5 mM, 0 min vs 90 min) is recorded as “more effective at 0 min”. In data set [3], the “LIVE/DEAD staining of bacteria on infected corneal cells” value is “only dead bacterial cells” and the “Viable bacteria recovered from treated wells” value was “No viable bacteria were recovered”. The “Activity against C. trachomatis” value in the data set on C. trachomatis is recorded as “bactericidal”. In the data set with N. gonorrhoeae, the Antigonococcal properties entry is reported as “strong antigonococcal properties”.
